These results are taken from ChEMBL document CHEMBL5303711, “ECBD screening data for assay EOS300108” (2023).

Counter-ions that a name gives are not always drawn. Calls of active or inactive are those of the source. No rule for the calls is given here. Where only a bound is given, the exact number is not on record here.

This data set is described as follows: Cytotoxicity activity against human HepG2 cells assessed by CellTiter-Glo luminescent cell viability assay. In kind it is toxicity, cell-based. Also noted: assay stage confirmatory assay, source tissue liver. The settings on record: HepG2 cells, read-out: IC50 relative. On the technique in general: ATP-based viability assays read luminescence as a measure of living cells.
With `CC(C)C[C@H](NC(=O)[C@@H](NC(=O)c1cccc(-c2ccccc2)n1)[C@@H](C)O)B(O)O` [DELANZOMIB], the CC50 was < 0.1 µM (active).

Regarding `CN1CCC(Nc2nc(Nc3ccc(Oc4ccccc4)cc3)c3c(=O)[nH]cc(Br)c3n2)CC1` [DENFIVONTINIB], the CC50 was 0.4 µM (active).

For `Cc1cc(N)c2ccccc2[n+]1CCCCCCCCCC[n+]1c(C)cc(N)c2ccccc21` [DEQUALINIUM CHLORIDE], the CC50 is 14.4 µM (inactive).

`CNCCCN1c2ccccc2CCc2ccccc21` [DESIPRAMINE HYDROCHLORIDE]: the CC50 was 11.4 µM (active).

For `C[C@H]1O[C@@H](O[C@H]2[C@@H](O)C[C@H](O[C@H]3[C@@H](O)C[C@H](O[C@H]4CC[C@@]5(C)[C@H](CC[C@@H]6[C@@H]5CC[C@]5(C)[C@@H](C7=CC(=O)OC7)CC[C@]65O)C4)O[C@@H]3C)O[C@@H]2C)C[C@H](O)[C@@H]1O` [DIGITOXIN], the CC50 was 0.1 µM (active).

Consider `C[C@H]1O[C@@H](O[C@H]2[C@@H](O)C[C@H](O[C@H]3[C@@H](O)C[C@H](O[C@H]4CC[C@@]5(C)[C@H](CC[C@@H]6[C@@H]5C[C@@H](O)[C@]5(C)[C@@H](C7=CC(=O)OC7)CC[C@]65O)C4)O[C@@H]3C)O[C@@H]2C)C[C@H](O)[C@@H]1O` [DIGOXIN], for which the CC50 was 0.2 µM (active).

Consider `CN1C[C@H](C(=O)N[C@]2(C)O[C@@]3(O)[C@@H]4CCCN4C(=O)[C@H](Cc4ccccc4)N3C2=O)C[C@@H]2c3cccc4[nH]cc(c34)C[C@H]21` [DIHYDROERGOTAMINE MESYLATE], for which the CC50 is 12.9 µM (active).

As to `Cc1cccc2c3c(ccc12)C1=C(C(=O)C3=O)[C@@H](C)CO1` [DIHYDROTANSHINONE I], the CC50 was 1.8 µM (active).

As for `Cc1ccc(C)c(-c2cc(C(F)(F)F)nn2-c2ccc(S(N)(=O)=O)cc2)c1` [DIMETHYL CELECOXIB], the CC50 was 18.1 µM (inactive).

In the case of `C[C@@H]1CC[C@@]2(OC1)O[C@H]1C[C@H]3[C@@H]4CC=C5C[C@@H](O[C@@H]6O[C@H](CO)[C@@H](O[C@@H]7O[C@@H](C)[C@H](O)[C@@H](O)[C@H]7O)[C@H](O)[C@H]6O[C@@H]6O[C@@H](C)[C@H](O)[C@@H](O)[C@H]6O)CC[C@]5(C)[C@H]4CC[C@]3(C)[C@H]1[C@@H]2C` [DIOSCIN], the CC50 was 0.7 µM (active).

Consider `c1ccc2c(c1)[I+]c1ccccc1-2` [DIPHENYLENEIODONIUM CHLORIDE], for which the CC50 was 0.2 µM (active).

Turning to `COc1cc2c(O)c3c(c(-c4ccc5c(c4)OCO5)c2cc1OC)C(=O)OC3` [DIPHYLLIN], the CC50 was 1.4 µM (active).

Turning to `CCN(CC)C(=S)S` [DITIOCARB SODIUM], the CC50 is 6.6 µM (active).

Consider `COc1cc2nc(N3CCN(C(=O)C4COc5ccccc5O4)CC3)nc(N)c2cc1OC` (stereo not given) [DOXAZOSIN MESYLATE], for which the CC50 is 13.5 µM (inactive).

Consider `CN1CCN(Cc2ccc(Nc3ncc(Cl)c(Nc4ccccc4S(=O)(=O)N(C)C)n3)cc2)CC1` [DUBERMATINIB], for which the CC50 is 11.2 µM (active).

In the case of `CNCC[C@H](Oc1cccc2ccccc12)c1cccs1` [DULOXETINE HYDROCHLORIDE], the CC50 is 4.3 µM (active).

Take `CCCCOc1ccc(C(=O)CCN2CCCCC2)cc1` [DYCLONINE HYDROCHLORIDE]: the CC50 is 9.9 µM (active).

Take `O=c1c2ccccc2[se]n1-c1ccccc1` [EBSELEN]: the CC50 was 28.4 µM (inactive).

For the compound `CC1(C)CC=C(c2nc(C3CC(C)(C)OC(C)(C)C3)ccc2NC(=O)c2nc(C#N)c[nH]2)CC1` [EDICOTINIB], the CC50 is 2.8 µM (active).

Consider `OC(CN1CCC(Cc2ccc(F)cc2)CC1)c1ccc(Cl)cc1` (stereo not given) [ELIPRODIL], for which the CC50 is 50 µM (inactive).

In the case of `CC[C@H]1CN2CCc3cc(OC)c(OC)cc3[C@@H]2C[C@@H]1C[C@H]1NCCc2cc(OC)c(OC)cc21` [EMETINE HYDROCHLORIDE], the CC50 is 0.2 µM (active).

As for `COC(=O)N[C@@H](C)CNc1nccc(-c2cn(C(C)C)nc2-c2cc(Cl)cc(NS(C)(=O)=O)c2F)n1` [ENCORAFENIB], the CC50 was 0.9 µM (active).

Consider `CCOc1ccccc1-n1c(C(C)N2CCN(C(=O)COc3ccc(Cl)cc3)CC2)nc2ccccc2c1=O` (stereo not given) [ERASTIN], for which the CC50 was 1.8 µM (active).

Regarding `COc1cc(OC)cc(N(CCNC(C)C)c2ccc3ncc(-c4cnn(C)c4)nc3c2)c1` [ERDAFITINIB], the CC50 is 3.9 µM (active).

Consider `C#Cc1cccc(Nc2ncnc3cc(OCCOC)c(OCCOC)cc23)c1` [ERLOTINIB HYDROCHLORIDE], for which the CC50 was 3.4 µM (inactive).

On to `Cc1cc(C#N)cc(C)c1Oc1nc(Nc2ccc(C#N)cc2)nc(N)c1Br` [ETRAVIRINE], for which the CC50 is 50 µM (inactive).

With `COc1ccc2cc1Oc1ccc(cc1)C[C@H]1c3cc(c(OC)cc3CCN1C)Oc1c(OC)c(OC)cc3c1[C@H](C2)N(C)CC3` [FANCHININ], the CC50 was 1.4 µM (active).

For the compound `Cc1cnc(Nc2ccc(OCCN3CCCC3)cc2)nc1Nc1cccc(S(=O)(=O)NC(C)(C)C)c1` [FEDRATINIB], the CC50 was 1.1 µM (active).

As for `CC1=C(/C=C/C(C)=C/C=C/C(C)=C/C(=O)Nc2ccc(O)cc2)C(C)(C)CCC1` [FENRETINIDE], the CC50 was 10.8 µM (active).

On to `CON(C)C(=O)N1N=C(c2cc(F)ccc2F)S[C@@]1(CCCN)c1ccccc1` [FILANESIB], for which the CC50 was 11 µM (active).

For `O=C(Nc1nc2cccc(-c3ccc(CN4CCS(=O)(=O)CC4)cc3)n2n1)C1CC1` [FILGOTINIB], the CC50 was 6.4 µM (active).

For the compound `COc1ccc(-c2nc(N3CCOCC3)c3sc(CN(C)c4ncc(C(=O)NO)cn4)cc3n2)cn1` [FIMEPINOSTAT], the CC50 is < 0.1 µM (active).

In the case of `CCCCCCCCc1ccc(CCC(N)(CO)CO)cc1` [FINGOLIMOD HYDROCHLORIDE], the CC50 was 1.4 µM (active).

As for `Cc1ncc(NC(=O)c2ccc(CN3CCN(C)CC3)c(C(F)(F)F)c2)cc1Nc1nccc(-c2cccnc2)n1` [FLUMATINIB], the CC50 was 3.3 µM (active).

On to `Fc1ccc(C(c2ccc(F)cc2)N2CCN(C/C=C/c3ccccc3)CC2)cc1` [FLUNARIZINE HYDROCHLORIDE], for which the CC50 is 14.6 µM (inactive).

With `CNCCC(Oc1ccc(C(F)(F)F)cc1)c1ccccc1` (stereo not given) [FLUOXETINE HYDROCHLORIDE], the CC50 is 6.6 µM (active).

On to `OCCN1CCN(CCCN2c3ccccc3Sc3ccc(C(F)(F)F)cc32)CC1` [FLUPHENAZINE HYDROCHLORIDE], for which the CC50 was 3.2 µM (active).

In the case of `C[C@]12CC[C@H](O)CC1=CC[C@@H]1[C@@H]2CC[C@]2(C)C(n3cnc4ccccc43)=CC[C@@H]12` [GALETERONE], the CC50 was 10.4 µM (active).

Take `O=c1cc(-c2ccc(O)c(O)c2)oc2cc(O[C@@H]3O[C@H](CO)[C@@H](O)[C@H](O)[C@H]3O)cc(O)c12` [GALUTEOLIN]: the CC50 was 5.7 µM (inactive).

Take `CC(C)c1cc(-c2n[nH]c(=O)n2-c2ccc3c(ccn3C)c2)c(O)cc1O` [GANETESPIB]: the CC50 is < 0.1 µM (active).

As for `O=C(NOCCO)c1ccc2cncn2c1Nc1ccc(I)cc1F` [GDC-0623], the CC50 is < 0.1 µM (active).

Regarding `CN(C)C1CCN(C(=O)c2ccc(NC(=O)Nc3ccc(-c4nc(N5CCOCC5)nc(N5CCOCC5)n4)cc3)cc2)CC1` [GEDATOLISIB], the CC50 is 1.7 µM (active).

For `CN(C)c1ccc(C(=C2C=CC(=[N+](C)C)C=C2)c2ccc(N(C)C)cc2)cc1` [GENTIAN VIOLET], the CC50 is 14.6 µM (inactive).

For the compound `CN(C)CCCn1cc(C2=C(c3c[nH]c4ccccc34)C(=O)NC2=O)c2ccccc21` [GF-109203], the CC50 was 4.8 µM (active).

Consider `CC1(C)C=Cc2c(ccc3c2OC[C@@H](c2ccc(O)cc2O)C3)O1` [GLABRIDIN], for which the CC50 was 12.8 µM (active).

In the case of `Cc1cc2c(C(C)C)c(O)c(O)c(C=O)c2c(O)c1-c1c(C)cc2c(C(C)C)c(O)c(O)c(C=O)c2c1O` [GOSSYPOL], the CC50 is 6.4 µM (active).

Regarding `CC[C@H](C)n1cc(C)c2c(C(=O)NCc3c(C)cc(C)[nH]c3=O)cc(-c3ccc(N4CCNCC4)nc3)cc21` [GSK2816126], the CC50 is 4.9 µM (active).

For `CCn1c(-c2nonc2N)nc2cnc(Oc3cccc(NC(=O)c4ccc(OCCN5CCOCC5)cc4)c3)cc21` [GSK-269962A], the CC50 was 3 µM (active).

For the compound `C[C@@H](Oc1cc(-n2cnc3ccc(CN4CCN(C)CC4)cc32)sc1C(N)=O)c1ccccc1C(F)(F)F` [GSK-461364], the CC50 was 3.7 µM (active).

As to `CCn1cc(-c2ccnc3[nH]c(-c4cccc(CN(C)C)c4)cc23)c(-c2ccc(NC(=O)N(C)C)cc2)n1` [GSK-1070916], the CC50 was 2.8 µM (active).

For the compound `CN(c1ccc(NC(=O)Nc2ccc(OC(F)(F)F)cc2)cc1)c1ccnc(Nc2cccc(S(N)(=O)=O)c2)n1` [GW806742X], the CC50 was 0.9 µM (active).

On to `O=C(CC1NCCCC1O)Cn1cnc2cc(Br)c(Cl)cc2c1=O` (stereo not given) [HALOFUGINONE], for which the CC50 was 0.1 µM (active).

Regarding `O=C(CCCN1CCC(O)(c2ccc(Cl)cc2)CC1)c1ccc(F)cc1` [HALOPERIDOL], the CC50 is 9.6 µM (active).

In the case of `CCS(=O)(=O)Nc1ccc2c(c1)/C(=C(/Nc1ccc(CN3CCCCC3)cc1)c1ccccc1)C(=O)N2` [HESPERADIN], the CC50 is 0.2 µM (active).

Regarding `Oc1c(Cl)cc(Cl)c(Cl)c1Cc1c(O)c(Cl)cc(Cl)c1Cl` [HEXACHLOROPHENE], the CC50 is 5.2 µM (active).

`CC(=O)[C@]1(O)Cc2c(O)c3c(c(O)c2[C@@H](O[C@H]2C[C@H](N)[C@H](O)[C@H](C)O2)C1)C(=O)c1ccccc1C3=O` [IDARUBICIN HYDROCHLORIDE]: the CC50 was 0.2 µM (active).

Take `Nc1ncc(-c2cnn(CCO)c2)c2scc(-c3ccc(NC(=O)Nc4cccc(F)c4)cc3)c12` [ILORASERTIB]: the CC50 is 2.8 µM (active).

As for `Cc1ccc(NC(=O)c2ccc(CN3CCN(C)CC3)cc2)cc1Nc1nccc(-c2cccnc2)n1` [IMATINIB], the CC50 is 7.3 µM (active).

As for `CCc1cc2c(cc1CC)CC(NC[C@H](O)c1ccc(O)c3[nH]c(=O)ccc13)C2` [INDACATEROL], the CC50 was 9.1 µM (active).

As to `CCN1CCN(c2ccc(Nc3cc(N(C)C(=O)Nc4c(Cl)c(OC)cc(OC)c4Cl)ncn3)cc2)CC1` [INFIGRATINIB], the CC50 is 3.3 µM (active).
